The values that follow come from US10238658B2, “1-pyrazolyl-3-(4-((2-anilinopyrimidin-4-yl) oxy) napththalen-1-yl) ureas as p38 MAP kinase inhibitors” (Respivert Limited, priority 2011, dated 2019).

The test system of assay [1] is IL-6. The experiment in a line: LPS-stimulated IL-6 production in sputum macrophages from COPD. The format is cell-based. The note with it: Homo sapiens, Macrophage; read-out: IL-6 E max, sputum macrophage. How it is done: Patients with COPD were inhaled with a nebulised solution of 3% (w/v) hypertonic saline using an ultrasonic nebuliser (Devilbiss, Carthage, Mo.) with tidal breathing for 5 min. This procedure was repeated a maximum of three times until enough sputum was obtained. The sputum samples were homogenized and mixed vigorously using a vortex mixer in 0.02% v/v dithiothreitol (DTT) solution. The samples were re-suspended in PBS (40 mL) followed by centrifugation at 1500 rpm at 4° C. for 10 min to obtain sputum cell pellets. The pellets were washed twice with PBS (40 mL). […]
(§1) Where appropriate, 1 μL of a solution containing either the test compound or reference article at the stated concentrations or alternatively 1 μL of DMSO as the vehicle control was added to each well (200 μL in media) and the cells were incubated for 2 hr. […] After washing with 200 uL wash buffer per well, the beads were resuspended in sheath fluid (150 μL) and analyzed immediately. The level of each analyte in the supernatant was calculated using Xcel Fit software with a 4 or 5-parameter equation using each standard curve. The inhibitions of each cytokine production were calculated at each concentration by comparison with vehicle control. The IC50 values were determined from concentration-inhibition curves using XL-Fit (idbs, Guildford, UK)

Assay [2] deals with IL-8. As to the kind of experiment: LPS-stimulated IL-8 production in sputum macrophages from COPD. Type of assay: cell-based. Particulars: Homo sapiens, Macrophage; read-out: IL-8 E max, sputum macrophage. How it is done:
(§2) Patients with COPD were inhaled with a nebulised solution of 3% (w/v) hypertonic saline using an ultrasonic nebuliser (Devilbiss, Carthage, Mo.) with tidal breathing for 5 min. This procedure was repeated a maximum of three times until enough sputum was obtained. The sputum samples were homogenized and mixed vigorously using a vortex mixer in 0.02% v/v dithiothreitol (DTT) solution. The samples were re-suspended in PBS (40 mL) followed by centrifugation at 1500 rpm at 4° C. for 10 min to obtain sputum cell pellets. The pellets were washed twice with PBS (40 mL). The sputum cells were then re-suspended in macrophage serum-free medium (macrophage-SFM, Life technologies, Paisley, UK; to achieve 2×10^6/well in a 24 well plate) containing 20 U/mL penicillin, 0.02 mg/mL streptomycin and 5 μg/mL amphotericin B and seeded on high bound 96-well plate, followed by incubation for 2 hr at 37° C. and at 5% CO2 to allow the macrophages to attach to the bottom of the plate. The cells on the plate were washed with fresh macrophage-SFM (200 μL/well) to remove neutrophils and other contaminated cells. The adherent cells (mainly sputum macrophages) on the plate were used for further analysis. Sputum induction and isolation were conducted in Quintiles Drug Research Unit at Guys Hospital and ethics approval and written informed consent was obtained by Quintiles.
as §1

For a further assay, the system named is TNFα. The experiment in a line: LPS-stimulated TNFα production in sputum macrophages from COPD. The format is cell-based. Particulars: Homo sapiens, Macrophage; read-out: TNFα E max, sputum macrophage. On the procedure: as §2, §1
Another assay relates to MIP1α. As to the kind of experiment: LPS-stimulated MIP1α production in sputum macrophages from COPD. The format is cell-based. Particulars: Homo sapiens, Macrophage; read-out: MIP1α E max, sputum macrophage. On the procedure: as §2, §1
In assay [3] the test system is IL-6. As to the kind of experiment: TNFα-stimulated IL-6 production in primary bronchial epithelial cells from COPD. The format is cell-based. Particulars: Homo sapiens, Epithelial cell; read-out: IL-6 E max, bronchial epithelial cell. How it is done: (§3) Primary airway epithelial cells obtained from patients with COPD were purchased from Asterand (Royston, UK), and maintained in bronchial epithelial cell growth media that was prepared by mixing together LHC8 (lnvitrogen) (500 mL), with LHC9 (Invitrogen) (500 mL) and 3 μL of retinoic acid solution (5 mg/mL in neat DMSO. The media was removed by aspiration and fresh BEGM (200 μL) was added to each well. Where appropriate, 1 μL of a solution of the test compound at the state concentrations or 1 μL of DMSO as the vehicle control was added and the cells were incubated for 2 hr. The cells were stimulated with TNFα (50 μL; final concentration 50 ng/mL) and then incubated for 4 hr at 37° C. and 5% CO2. The supernatant was then collected and kept at −20° C.
(§4) The levels of IL-6 and IL-8 were determined by ELISA using R&D Systems' Human IL-6 and IL-8 Duoset® Elisa Kits. The inhibition of IL-6 and IL-8 production was calculated at each concentration by comparison with vehicle control.

In assay [4] the test system is IL-8. The experiment in a line: TNFα-stimulated IL-8 production in primary bronchial epithelial cells from COPD. Type of assay: cell-based. The note with it: Homo sapiens, Epithelial cell; read-out: IL-8 E max, bronchial epithelial cell. How it is done:
as §3, §4

Another assay relates to A/J mice. As to the kind of experiment: Cigarette smoke model: macrophage and neutrophil accumulation in BALF. The format is in vivo, mouse. Particulars: 1.75 μg/mouse (35 μL, bid, i.n.). On the procedure:
A/J mice (males, 5 weeks old) were exposed to cigarette smoke (4% cigarette smoke, diluted with air) for 30 min/day for 11 days using a Tobacco Smoke Inhalation Experiment System for small animals (Model SIS-CS; Sibata Scientific Technology, Tokyo, Japan). […] At 12 hr after the last dosing, each of the animals was anesthetized, the trachea cannulated and bronchoalveolar lavage fluid (BALF) was collected. The numbers of alveolar macrophages and neutrophils were determined by FACS analysis (EPICS® ALTRA II, Beckman Coulter, Inc., Fullerton, Calif., USA) using anti-mouse MOMA2 antibody (macrophage) or anti-mouse 7/4 antibody (neutrophil). BALF was centrifuged and the supernatant was collected. The level of keratinocyte chemoattractant (KC; CXCL1) in BALF was quantitated using a Quentikine® mouse KC ELISA kit (R&D systems, Inc., Minneapolis, Minn., USA).

With `CCC(=O)O[C@]1(C(=O)SCF)[C@H](C)C[C@H]2[C@@H]3C[C@H](F)C4=CC(=O)C=C[C@]4(C)[C@@]3(F)[C@@H](O)C[C@@]21C` [Fluticasone Propionate, fluticasone propionate, reference compound], the Emax at 0.1 µg/mL stood at 26% in the assay on IL-6 [1]; 19% with IL-8 [2]; 18% in the assay on TNFα; 20% with MIP1α; 38% in the assay on IL-6 [3]; 17% with IL-8 [4]. Further, the “macrophage accumulation into airways, cigarette smoke model” value in the assay with A/J mice was “did not inhibit”. In the assay with A/J mice, the “neutrophil accumulation into airways, cigarette smoke model” value is “did not inhibit”.
